Test results as given in PMC8674134, “Safety and efficacy of avapritinib in advanced systemic mastocytosis: the phase 1 EXPLORER trial” (Nature Medicine, 2021).

System: AdvSM symptom burden
Assay: Patient-reported outcomes: AdvSM-SAF total symptom score
Type: in vivo, human
Details: C11; P = 0.002, n = 20; baseline 19.1 points (n = 40)
Source text: The AdvSM-SAF comprises a ten-item questionnaire completed by the patient daily, specifically designed to assess symptoms related to AdvSM and measure the impact of treatments on patient symptom improvement. […] The AdvSM-SAF assesses the severity of eight symptoms of AdvSM, including abdominal pain, nausea, vomiting, diarrhea, spots, itching, flushing and fatigue over a 24-h period on a numerical rating scale, and also measures the frequency of vomiting and diarrhea by asking patients to enter a discrete numerical value. Data were analyzed at the item level, domain level and total score level. Domain level analyses are: • Gastrointestinal symptoms score (abdominal pain, nausea, vomiting and diarrhea severity (range 0–40)) • Skin symptom score (spots, itching and flushing severity (range 0–30))
The TSS was achieved by summing all eight severity items (range 0–80).

In the case of `Cn1cc(-c2cc3c(N4CCN(c5ncc([C@@](C)(N)c6ccc(F)cc6)cn5)CC4)ncnn3c2)cn1` [avapritinib], the “Mean change from baseline AdvSM-SAF TSS” value is reported as −10.9 points.
